Details: composition applied with electroporation (Fusion Meso Xpert, ftrain 0.4 Hz, negative polarity) compared with topical application of an identical composition; human skin sample; FIG. 5
Description: To test the effect of the device, a sample of human skin is peripherally attached to a support, with the counterelectrode of the electroporation device placed between the inner face of the skin and the support. The electrode of the electroporation device is placed in contact with the outer face of the skin sample. The case of the electroporation device is immobilized by a support. The support is placed on an orbital shaker, so that the electrode moves over the surface of the skin.
The frequency (ftrain) with which the pulse trains follow each other is 0.4 Hz, the duration Ton ranges from 0.5 to 2 seconds, and the chosen polarity is negative, i.e. the electrode is at a negative potential with respect to the counterelectrode. The apparatus is used in the highest energy mode. […] The pulses of frequency fpulse are, for example, of maximum amplitude deltaV, within the pulse train, this amplitude deltaV being less than or equal to 30% of the voltage Vmean, as an absolute value.
The cosmetic compositions are applied before the apparatus is put in place.
Firstly, compositions 1 to 3 are applied topically, and secondly, the application of compositions 1 to 3 is combined with electroporation.
The skin is removed from the experimental system and then analysed to determine the amount of salicylic acid that has penetrated.

- amount of salicylic acid that has penetrated: much higher
Compound: O=C(O)c1ccccc1O [salicylic acid]
